Converted amounts (≈) assume the structure as drawn. Like-named read-outs stand apart in the source and are kept apart here.
How the values were obtained:
[1] = test system: stabilised thylakoid membranes; test: Inhibition of photosynthetic efficiency of stabilised thylakoid membranes measured by fluorescence (F2-F1)/F2; type: biochemical, spinach
From the text: In a specific embodiment, a fluorometer continuously illuminates weakly the photosynthetic biological material with a light emitting diode (LED) emitting light at a wavelength of 475 or at 660 nm. Better results were obtained with the 475 nm wavelength. In order to obtain a higher sensitivity for measuring the photosynthetic response to toxic molecules, the intensity of the low excitation light was adjusted so as to obtain a F1 fluorescence level slightly higher than F0.
Fluorescence measured 2 sec after turning on one LED is F1. Three additional LEDs are then turned on so as to induce actinic illumination F2. Dispersion of LEDs is illustrated in FIG. 1. Light beams are oriented so as to form together a point of convergence precisely at the level where the photodiode is read. After a specific time, selected according to the nature of the thylakoid membranes used (eg. source of thylakoids, etc.) (Table 1), of the background noise and of the level of sensitivity sought, the F2 fluorescence is measured. To determine F1 and F2, the fluorometer measures wavelengths higher than 650 nm when the illumination is at 475 nm, and higher than 700 nm when illumination is at 660 nm.
The photosynthetic efficiency is determined with the following formula (F2−F1)/F2. Preferably, the photosynthetic efficiency of the stabilised thylakoids is 0.8±0.1. Any molecule affecting the photosystems modifies either F1 or F2 which modification necessarily disrupts (increases or decreases) the photosynthetic efficiency. The inhibition curve of a particular molecule is determined by calculating the activity of the photosystems in the absence of the molecule and in the presence of the molecule and comparing both efficiency as follows as described in Conrad 1993:
Without inhibitor (wi): efficiency(wi)=(F2(wi)−F1(wi))/F2(wi) With inhibitor: Relative photosynthetic efficiency(sample)=(F2(sample)−F1(sample))/F2(wi) Percentage efficiency: efficiency (%)=(efficiency(sample)×100)/efficiency(wi) Percentage inhibition: Inhibition (%)=100−efficiency (%)
The individual test tubes (100 μL lyophilised thylakoid membranes) were resuspended in 2 mL of water or tested samples. The concentrated batch of test tubes was resuspended in water, in Buffer 1 (HEPES-NaOH 50 mM pH 7.5 buffer containing sucrose 330 mM, MgCl2 20 mM, NH4Cl 10 mM, PEG 4000 4% (p/v)); or in Buffer 2 (phosphate buffer 0.1 M pH 6.5 containing sucrose 330 mM, NH4Cl 10 mM, MgCl2 20 mM, EDTA 10 mM, PEG 4000 4% (p/v)). A combination of buffered solutions 1 and 2 may also be used. […] These different buffers rs produce different results in the detection sensitivity (see Table 3 above). The final volume obtained depends on the quantity of lyophilised membranes used (2.5 mL for 25 tests, 5 mL for 50 tests).
Before use, the tubes containing stabilised thylakoid membranes were retrieved from storage. If they were stored in the freezer or the refrigerator, they were tempered 30 minutes at room temperature and in the dark. Two milliliters of fluid samples and the required volume of MgCl2 mother solution to get 0-10 mM MgCl2 (depending on tested samples) were added to 100 μL of the thylakoids membranes formulation at a concentration of 5 μg/mL. The tubes are then shook by inversion for 2 min. […]

[2] = test system: Chemically immobilised thylakoids; conditions: chemically immobilised thylakoids (electrochemistry), Laberge (1999); cited from earlier work
[3] = test system: Physically immobilised thylakoids; conditions: physically immobilised thylakoids (electrochemistry), Laberge (2000); cited from earlier work
algaes native [4] = conditions: algaes native (fluorescence), Conrad (1993); cited from earlier work
PSII [5] = molecular target: T1, PSII (Thermosynechococcus vestitus, UniProt P0A444); conditions: PSII Clark electrode (amperometry), Koblizek (2002), cited from earlier work
PSII [6] = molecular target: T1, PSII; conditions: cited from earlier work
algaes native [7] = conditions: algaes native (fluorescence), Jay (1997); cited from earlier work
[8] = Buffer 1 + 5 mM MgCl2 (in cuvette)
[9] = membranes resuspended in Buffer 1
[10] = membranes resuspended in Buffer 2
[11] = stabilised thylakoid membranes of the present invention (fluorescence)

## [Zn+2] [Zn]
[1]; incubation time 15 min
  IC50: >100 µg/mL
  Threshold limit value: 16 mg/L
[1]; incubation time 30 min
  IC50: 70 µg/mL
  Threshold limit value: 16 mg/L
[1]; incubation time 60 min
  IC50: 34 µg/mL
  Threshold limit value: 7.1 mg/L

## CCNc1nc(Cl)nc(NC(C)C)n1 [Atrazine]
[2]
  IC50: 330 µg/mL (≈ 1530 µM)
  Threshold: 0.01 to 0.05 mg/L
[3]
  IC50: 280 µg/mL (≈ 1300 µM)
Algaes native [4]
  IC50: 150 µg/mL (≈ 695 µM)
PSII [5]
  IC50: 301 µM
  Threshold: 0.0004 mg/L
PSII [6]
  IC50: 88.1 µM
[1]; Biological apple juice, atrazine 0.01 μg/mL
  Inhibition (%): 23%
[1]; Biological apple juice, atrazine 0.1 μg/mL
  Inhibition (%): 61%
[1]; Biological apple juice, atrazine 4 μg/mL
  Inhibition (%): 71%
[1]; [8]
  IC50: 0.04 µg/mL
  Threshold: 0.001 mg/L
[1]; Commercial apple juice (clear), pH 7, gravimetric filtration, atrazine 0.01 μg/mL
  Inhibition (%): 15%
[1]; Commercial apple juice (clear), pH 7, gravimetric filtration, atrazine 0.1 μg/mL
  Inhibition (%): 60%
[1]; Commercial apple juice (clear), pH 7, gravimetric filtration, atrazine 4 μg/mL
  Inhibition (%): 74%
[1]; Commercial apple juice (with pulp), pH 7, gravimetric filtration, atrazine 0.01 μg/mL
  Inhibition (%): 23%
[1]; Commercial apple juice (with pulp), pH 7, gravimetric filtration, atrazine 0.1 μg/mL
  Inhibition (%): 58%
[1]; Commercial apple juice (with pulp), pH 7, gravimetric filtration, atrazine 4 μg/mL
  Inhibition (%): 65%
[1]; Commercial apple juice, pH adjusted at 7, atrazine 0.01 μg/mL
  Inhibition (%): 11%
[1]; Commercial apple juice, pH adjusted at 7, atrazine 0.1 μg/mL
  Inhibition (%): 61%
[1]; Commercial apple juice, pH adjusted at 7, atrazine 4 μg/mL
  Inhibition (%): 84%
[1]; Water, atrazine 0.01 μg/mL
  Inhibition (%): 16%
[1]; Water, atrazine 0.1 μg/mL
  Inhibition (%): 60%
[1]; Water, atrazine 4 μg/mL
  Inhibition (%): 80%
[1]; atrazine 0.001 mg/L
  % effect: 4.2%
[1]; atrazine 0.004 mg/L
  % effect: 14.9%
[1]; atrazine 0.04 mg/L
  % effect: 55.3%
[1]; atrazine 0.1 mg/L
  % effect: 69.4%
[1]; [9]
  IC50: 0.13 µg/mL
  Threshold: 0.002 mg/L
[1]; [10]
  IC50: 0.33 µg/mL
  Threshold: 0.002 mg/L
[1]; sample with initial concentration of 4 mg/L of atrazine
  calculated inhibition: 64.8%
[1]; some of the thylakoid membranes preparations
  detection threshold: 1 ppb
[1]; [11]
  IC50: 40 µg/mL
  Threshold: 0.001 mg/L
Algaes native [7]
  IC50: 62 µg/mL (≈ 287 µM)
  Threshold: 0.009 mg/L

## [Cl-].[Na+] [NaCl]
[1]
  Effect (inhibition or stimulation) on thylakoid membranes: Stimulation

## CCCCCCCCCCCCCCCCCC(=O)O [Stearic acid]
[1]
  Effect (inhibition or stimulation) on thylakoid membranes: Stimulation

## CN(C)C(=O)Nc1ccc(Cl)c(Cl)c1 [Diuron]
[2]
  IC50: 120 µg/mL (≈ 515 µM)
  Threshold: 0.01 mg/L
[3]
  IC50: 130 µg/mL (≈ 558 µM)
Algaes native [4]
  IC50: 959 µg/mL (≈ 4110 µM)
PSII [5]
  Threshold: 0.0001 mg/L
PSII [5]; read-out: IC50 (converted)
  IC50: 81.5 µM
PSII [6]
  IC50: 686 µM
[1]; [8]
  IC50: 0.011 µg/mL
  Threshold: 0.002 mg/L
[1]; [9]
  IC50: 0.022 µg/mL
  Threshold: 0.0006 mg/L
[1]; [10]
  IC50: 0.02 µg/mL
  Threshold: <0.001 mg/L
[1]; [11]
  IC50: 71 µg/mL
  Threshold: 0.002 mg/L
Algaes native [7]
  IC50: 12 µg/mL (≈ 51.5 µM)
  Threshold: 0.002 mg/L

## [Hg+2] [Hg]
[1]; incubation time 15 min
  IC50: 2.5 µg/mL
  Threshold limit value: 0.7 mg/L
[1]; incubation time 30 min
  IC50: 2.0 µg/mL
  Threshold limit value: 0.35 mg/L
[1]; incubation time 60 min
  IC50: 2.0 µg/mL
  Threshold limit value: 0.35 mg/L

## OO [H2O2]
[1]
  Effect (inhibition or stimulation) on thylakoid membranes: Inhibition

## CCNc1nc(N)nc(Cl)n1 [Deisopropyl atrazine]
[1]; [8]
  IC50: >0.1 µg/mL
  Threshold: >0.1 mg/L
[1]; [9]
  IC50: >1 µg/mL
  Threshold: 0.2 mg/L
[1]; [10]
  IC50: >4 µg/mL
  Threshold: 1.26 mg/L

## CC(C)N1C(=O)c2ccccc2NS1(=O)=O [Bentazon]
[1]; [8]
  IC50: >4 µg/mL
  Threshold: >4 mg/L
[1]; [9]
  IC50: >4 µg/mL
  Threshold: 2 mg/L
[1]; [10]
  IC50: >4 µg/mL
  Threshold: 1.22 mg/L

## Nitrates
[1]
  Effect (inhibition or stimulation) on thylakoid membranes: Weak inhibition

## CCC(=O)Nc1ccc(Cl)c(Cl)c1 [Propanil]
[1]; [8]
  IC50: 0.068 µg/mL
  Threshold: 0.0006 mg/L
[1]; [9]
  IC50: 0.179 µg/mL
  Threshold: 0.002 mg/L
[1]; [10]
  IC50: 0.221 µg/mL
  Threshold: 0.013 mg/L

## O=C([O-])[O-].[Ca+2] [CaCO3]
[1]
  Effect (inhibition or stimulation) on thylakoid membranes: Stimulation

## Ammoniacal nitrogen
[1]
  Effect (inhibition or stimulation) on thylakoid membranes: Stimulation

## CCNc1nc(Cl)nc(NC(C)(C)C#N)n1 [Cyanazine]
[2]
  IC50: 79 µg/mL (≈ 328 µM)
[3]
  IC50: 310 µg/mL (≈ 1290 µM)
[1]; [8]
  IC50: 0.028 µg/mL
  Threshold: 0.0006 mg/L
[1]; [9]
  IC50: 0.009 µg/mL
  Threshold: 0.002 mg/L
[1]; [10]
  IC50: 0.135 µg/mL
  Threshold: 0.013 mg/L
[1]; [11]
  IC50: 40 µg/mL

## CCCCCCCC/C=C\CCCCCCCC(=O)O [Oleic acid]
[1]
  Effect (inhibition or stimulation) on thylakoid membranes: Inhibition

## N#Cc1cc(Br)c(O)c(Br)c1 [Bromoxynil]
[1]; [8]
  IC50: >0.1 µg/mL
  Threshold: >0.1 mg/L
[1]; [9]
  IC50: 0.443 µg/mL
  Threshold: 0.013 mg/L
[1]; [10]
  IC50: 0.414 µg/mL
  Threshold: 0.06 mg/L

## CC(C)Nc1nc(N)nc(Cl)n1 [Desethyl atrazine]
[1]; [8]
  IC50: 1.1 µg/mL
  Threshold: 0.2 mg/L
[1]; [9]
  IC50: 1.08 µg/mL
  Threshold: 0.013 mg/L
[1]; [10]
  IC50: 2.31 µg/mL
  Threshold: 0.2 mg/L

## CCNc1nc(Cl)nc(NCC)n1 [Simazine]
[1]; [8]
  IC50: 0.942 µg/mL
  Threshold: 0.06 mg/L
[1]; [9]
  IC50: 0.028 µg/mL
  Threshold: 0.002 mg/L

## Phosphates
[1]
  Effect (inhibition or stimulation) on thylakoid membranes: Stimulation

## [Ni+2] [Ni]
[1]; incubation time 15 min
  IC50: >100 µg/mL
  Threshold limit value: 35 mg/L
[1]; incubation time 30 min
  IC50: >100 µg/mL
  Threshold limit value: 7.1 mg/L
[1]; incubation time 60 min
  IC50: >100 µg/mL
  Threshold limit value: 7.1 mg/L

— patent US8303907B2, “Biosensors, and method and kits for using same” (priority 2002, dated 2012)
